# In patent publication US6620792B1, “Pharmaceutical compositions containing monosialoganglioside GM1 or derivative thereof suitable for the treatment of parkinson's disease” (Fidia S.p.A., priority 1992, dated 2003):
# B1: BDNF: brain-derived neurotrophic factor (protein, UniProt P23560 19-247, looked up)
# Neurotrophic factor BDNF …: APMKEANIRGQGGLAYPGVRTHGTLESVNGPKAGSRGLTSLADTFEHVIEELLDEDQKVRPNEENNKDADLYTSRVMLSSQVPLEPPLLFLLEEYKNYLDAANMSMRVRRHSDPARRGELSVCDSISEWVTAADKKTAVDMSGGTVTVLEKVPVSKGQLKQYFYETKCNPMGYTKEGCRGIDKRHWNSQCRTTQSYVRALTMDSKKRIGWRFIRIDTSCVCTLTIKRGR
# Key:
# [1] = tested on: mesencephalic dopaminergic neurons; test: TOPA neurotoxicity in mesencephalic dopaminergic neuron cultures, TH immunofluorescence; format: cell-based, rat
# Protocol: Mesencephalic neuron cultures were prepared according to Dal Toso et al. (Dal Toso et al.: “Development and survival of neurons in dissociated fetal mesencephalic serum-free cell cultures: I. Effects of cell density and of an adult mammalian striatal-derived neuronotrophic factor (SDNF)”, J. Neurosci., 8 (3) 733-745, 1988) from the mesencephalic tegmentum of 14.5-15 days' rat embryos.
# Neurons (0.75×10^6) were plated on a poly-L-ornithine substrate in 12-well (25 mm dia. each) clusters.
# Cultures were used between the fourth and the sixth day without changing the medium. […]
# (§1) 2-hour pretreatment before acute incubation with TOPA;
# (§2) cotreatment only with LIGA 20 before acute incubation with TOPA;
# (§3) pretreatment with/without cotreatment before (100 μM for 2 h) and/or during (100 μM for 24 h) prolonged incubation with TOPA. TOPA cytotoxicity was determined by evaluating cellular survival, and more precisely:
# TH immunofluorescence (specific for tyrosine hydroxylase) in mesencephalic dopaminergic neurons, as described by Berger et al. (Berger B. et al.: “Long-term development of mesencephalic dopaminergic neurons of mouse embryos in dissociated primary cultures: morphological and histochemical characteristics”, Neurosci., 7, 193-205, 1982);
# (§4) Cytotoxicity is expressed as per cent cellular survival.
# The results of the two tests (in triplicate) were analysed statistically according to Duncan's test.
# cerebellar granule cells = test: TOPA neurotoxicity in cerebellar granule cell cultures, MTT assay; format: cell-based; details: for Neuronal survival (%): control cultures = 100%
# Protocol: Granular cell cultures were obtained from 8-day rat cerebella and cultured (3×10^6 cells) on plates coated with poly-L-lysine substrate according to Skaper et al. (Skaper S. D. et al.: “Culture and use of primary and clonal neural cells”, Methods in Neurosciences, Ed. by P. M. Conn, Vol. 2, pp. 17-33, Academic Press, Orlando, 1990).
# Twenty-four hours later, cytosine arabinoside (10 μM) was added to inhibit non-neuronal proliferation. Cerebellar granule cells were used 10-12 days later without changing the medium.
# Cells were incubated with TOPA either for 40 minutes (100 μM acute exposure) or for 24 h (10 μM prolonged exposure).
# Treatment with GM1, AGF2, AGF4 (100 μM) and LIGA 20 (1-30 μm) was carried out as follows:
# as §1, §2, §3
# MTT colorimetric assay of cerebellar neurons, as described by Mosmann (Mosmann T.: “Rapid colorimetric assay for cellular growth and survival: application to proliferation and cytotoxicity assays”, J. Immunol. Meth., 65, 55-63, 1983).
# as §4
# The results of the two tests (in triplicate) were analysed statistically according to Duncan's test. A brief description of same is reported below:
# In FIG. 3 the dose-dependent protective effect of LIGA20 against TOPA-induced death of cultured cerebellar granule cells is represented. Cells were exposed concurrently to 100 μM TOPA and 1-30 μM LIGA20 or 200 μM GM1 in Locke's solution for 45 minutes (24° C.), washed and returned to their original medium. Survival was assessed 24 h later by the MTT method. Means±S.E.M. (n=9, 3 experiments). TOPA ( ), LIGA 20 ( ), GM1 ( ).
# In vitro granule cells at the 11th day were incubated as indicated above. In the 40-minute exposure to TOPA, GM1 (100 μM) was used in 2-h pretreatment only. In the […] exposure to TOPA, GM1 (100 μM) was used either in 2-h pretreatment only or in 2-h pretreatment and in cotreatment with TOPA. The values are expressed with reference to the corresponding control cultures (=100%) and are an average (±S.D.) of two determinations, each being carried out in triplicate.
molecule,measurement,setting,value
"NC(Cc1cc(O)c(O)cc1O)C(=O)O (stereo not drawn) [TOPA, 6-hydroxy-dopa, reference compound]",No. of TH+ cells,"[1]; TOPA 10 μM alone for 24 h, average ± S.D., control 244 ± 20",62 ± 8 (a)
same,Neuronal survival (%),"cerebellar granule cells; TOPA 10 μM alone, 24-h exposure",17.1 ± 1.4%
same,Neuronal survival (%),"cerebellar granule cells; TOPA 100 μM alone, 40-minute exposure",22 ± 2.0%
N-dichloroacetyl lyso GM1 [LIGA20],TH+ cells (% control),"[1]; 30 μM LIGA20 cotreatment with 100 μM TOPA for 45 minutes, counted 24 h later, mean ± S.E.M., no drug 5.2 ± 1.1",83.9 ± 4.2 % control
same,EC50,"cerebellar granule cells; cotreatment with 100 μM TOPA for 45 minutes, 1-30 μM LIGA20, MTT 24 h later (FIG. 3), read-out: ED50 of protection against the acute toxicity of TOPA",~9 µM
B1,neuroprotective activity alone against TOPA-induced neurotoxicity,[1]; BDNF alone at 1 ng/ml,no neuroprotective activity of their own
